# In patent publication US7122173B2, “Agent for the treatment of bladder irritative symptoms accompanied by benign prostatic hyperplasia” (Kyowa Hakko Kogyo Co., Ltd., priority 2001, dated 2006):
# System: rats with partial urethra obstruction
# Assay: Bladder capacity in rats with partial outlet obstruction (cystometry)
# Format: in vivo, rat
# Details: oral
# Method: The test was carried out in accordance with the method of Saito et al. (J. Urol., 150: 1145–1151 (1993)). Male SD rats of 8 to 9 weeks of age (supplied by Japan SLC) were used in the test. Five to seven animals of these rats were put in each metal cage and reared by allowing them to freely take commercially available chow and water, in a rearing room at a room temperature of from 19 to 25° C. and a humidity of from 30 to 70% under illumination for 12 hours (from 7 a.m. to 7 p.m.) per day. Partial urethra obstruction was induced in rats, as a model of urethral obstruction mimicking BPH. Each rat was anesthetized by intraperitoneal administration of 50 mg/kg of pentobarbital sodium (Dainippon Pharmaceutical) and placed in dorsal position. The abdomen was cut in a length of about 1 cm by median incision to expose the bladder, prostate and the urethra. The bladder neck and bladder base were peeled from the prostate, and two surgical sutures (No. 3, Natsume Seisakusho) were passed behind the urethra base. A polyethylene tube (PE-200; Becton Dickinson) was placed along the urethra, and the urethra was mildly double-ligated together with the tube. The ligation was carried out in such a manner that the urethra was not pressed by the polyethylene tube and the sutures were not loosened. The polyethylene tube was pulled out and the urethra was constricted. On the same day of the above surgery, bladder catheter indwelling operation was carried out. The bladder was exposed, and a polyethylene tube (PE-50; Becton Dickinson) was inserted from the bladder top and fixed with a surgical suture. The other end was exposed subcutaneously from the back neck, plugged and then fixed to the skin with the surgical suture. The bladder was returned to the original position and the abdomen was sutured with the surgical suture. Five to seven days after the urethra obstruction and catheter indwelling operations, the rats with partial urethra obstruction and those subjected to sham-operation were put in Ballman cages (KN-326-1, Natsume Seisakusho) under the restricted state, and a three-way cock was connected to the bladder catheter. A pressure transducer (DX-360; Nihon Kohden) was connected to one end of the three-way cock, and the intravesical pressure signal was amplified via a strain pressure amplifier (AP-601G; Nihon Kohden), measured by a polygraph (RPM-6008; Nihon Kohden) and recorded on a thermal array recorder (RTA-1200; Nihon Kohden). A syringe filled with physiological saline (Otsuka Pharmaceutical Industries, Tokushima, Japan) was connected to the other end of the three-way cock and fixed to an infusion pump (KDS 220; Neuroscience). An FD pickup (TB-611T; Nihon Kohden) equipped with a cup was placed on the downside of the Ballman cage and connected to the strain gauge pressure amplifier, and the micturition volume was recorded on the thermal array recorder as the tension change. After the completion of the preparation, physiological saline kept at room temperature was continuously injected into the bladder at a flow rate of 6 mL/h for about 30 minutes, and the animals periodically expressing micturition contraction were used in the test. After they are allowed to stand for 30 to 60 minutes, residual urine was manually expressed by finger pressure. Five minutes thereafter, the injection of physiological saline into the bladder was started again, and the injection was immediately stopped when micturition was observed. The bladder capacity was calculated from the period of time until expression of micturition (injection rate 6 mL/h×injection period). The residual urine volume was calculated by subtracting the micturition volume at the time of bladder contraction (voided volume per micturition) from the bladder capacity. By repeating 30 minutes of bladder injection of physiological saline 2 to 3 times, respective values were measured and used as the test compound or solvent pre-administration values. […]
# [1] = before administration (baseline of the Compound 1 group)
# [2] = rats with partial urethra obstruction
structure (smiles),measurement,setting,value
"C[C@](O)(C(=O)Nc1cccc2c1C(=O)c1sccc1CS2(=O)=O)C(F)(F)F [Compound 1, (S)-(+)-N-(5,5-dioxido-10-oxo-4,10-dihydrothieno[3,2-c][1]benzothiepin-9-yl)-3,3,3-trifluoro-2-hydroxy-2-methylpropanamide]",Bladder capacity,1 h after administration,0.54 ± 0.08 mL
same,Residual urine volume,1 h after administration,0.18 ± 0.07 mL
same,micturition volume,1 h after administration,0.36 ± 0.07 mL
same,Bladder capacity,2 h after administration,0.46 ± 0.07 mL
same,Residual urine volume,2 h after administration,0.10 ± 0.05 mL
same,micturition volume,2 h after administration,0.36 ± 0.07 mL
same,Bladder capacity,3 h after administration,0.44 ± 0.07 mL
same,Residual urine volume,3 h after administration,0.18 ± 0.07 mL
same,micturition volume,3 h after administration,0.27 ± 0.01 mL
same,Bladder capacity,[1],0.40 ± 0.04 mL
same,Residual urine volume,[1],0.15 ± 0.02 mL
same,micturition volume,[1],0.25 ± 0.04 mL
same,Effect on bladder capacity (in words),[2],tended to increase bladder capacity
same,Effect on micturition volume (in words),[2],significantly increased micturition volume
